For data set [1], the system named is HER2-mutant NSCLC. The settings on record: pretreated patients with HER2-mutant NSCLC; cited from earlier work.
The conditions of data set [2]: pre-clinical studies; cited from earlier work.
Data set [3] can be described thus: Pharmacokinetics of SHR-A1811, total antibody and free payload (non-compartmental). The settings on record: for Tmax: median (range).
The conditions of data set [4]: pre-clinical studies; cited from earlier work. The source holds these as a separate data set.
The mark [5] stands for this setting: multiple dosing (cycle 3), SHR-A1811 […] (n=3), PK data available for 1 patient.
The mark [6] stands for this setting: single dosing (cycle 1), SHR-A1811 8.0 mg/kg (n=3), mean (SD).

On to Trastuzumab emtansine [T-DM1], for which, in data set [1], the ORR is 44% and the “median DoR” value is on record as 4 months.

As for `CC[C@@]1(O)C(=O)OCc2c1cc1n(c2=O)Cc2c-1nc1cc(F)c(C)c3c1c2[C@@H](NC(=O)[C@H](O)C1CC1)CC3` [Free payload], in data set [2], the “membrane permeability compared with the payload of T-DXd” value is reported as “superior”. The “exposure (Cmax, AUC0−21d, AUC0−t, and AUC0−∞) versus dose” value in data set [3] (after single dosing, over the tested dose range) is reported as “increased in a dose-dependent manner”. Also, the “plasma exposure compared with ADC and TAb” value in data set [3] (all studied dose levels) is on record as “much lower”. In addition, the t1/2 is 5.6 (NC) day in data set [3] (setting [5]); 5.7 (0.5) day in data set [3] (multiple dosing (cycle 3), SHR-A1811 […] (n=3), mean (SD)); 6.5 (1.6) day in data set [3] (multiple dosing (cycle 3), SHR-A1811 […] (n=10), mean (SD)); 6.3 (1.0) day in data set [3] (multiple dosing (cycle 3), SHR-A1811 […] (n=41), mean (SD)); 5.5 (1.1) day in data set [3] (setting [6]); 5.9 (1.1) day in data set [3] (single dosing (cycle 1), SHR-A1811 […] (n=10), mean (SD)). Further, in data set [3] (single dosing (cycle 1), SHR-A1811 […] (n=41), mean (SD)), the t1/2 is 5.2 (0.6) day. Also, the Tmax in data set [3] (setting [5]) is on record as 0.105 (0.1050-0.1050) day; in data set [3] (multiple dosing (cycle 3), SHR-A1811 […] (n=3)), 0.124 (0.1150-0.1320) day; in data set [3] (multiple dosing (cycle 3), SHR-A1811 […] (n=10)), 0.117 (0.1050-0.1190) day; in data set [3] (multiple dosing (cycle 3), SHR-A1811 […] (n=41)), 0.104 (0.0806-7.0200) day; in data set [3] (single dosing (cycle 1), SHR-A1811 8.0 mg/kg (n=3)), 1.0600 (0.3960-1.0600) day; in data set [3] (single dosing (cycle 1), SHR-A1811 […] (n=10)) it was 0.3990 (0.1470-1.0200) day. Besides, the Tmax in data set [3] (single dosing (cycle 1), SHR-A1811 […] (n=41)) is on record as 0.3960 (0.0236-1.0600) day. The AUC0-21d in data set [3] (setting [6]) is 23.5 (7.4) day·ng/mL. Further, in data set [3] (setting [6]), the AUC0-t is 22.8 (6.2) day·ng/mL. Moreover, the “AUC0-∞” value in data set [3] (setting [6]) is on record as 25.2 (7.6) day·ng/mL. For the same compound, in data set [3] (setting [6]), the Cmax is 3.9 (1.0) ng/mL. Further, the MRT in data set [3] (setting [6]) is recorded as 7.6 (1.8) day. The “cytotoxicity compared with the payload of T-DXd” value in data set [4] is given as “superior”.

These data come from paper PMC11247081 (Signal Transduction and Targeted Therapy, 2024).
